Measurements: patent publication US20120183536A1, “METHODS OF USING CORTICOTROPIN-RELEASING FACTOR FOR THE TREATMENT OF CANCER” (priority 2009, published 2012)
Where two headings read alike, the source gives them in different places.

Key:
U87 Fluc brain tumor = test system: U87 Fluc brain tumor
Excerpt: The results were obtained with SCID mice bearing brain tumors produced by injection with the human glioblastoma cell line U87 Flue. The U87 Flue cell line was created by stably transducing U87 cells with a lentiviral construct containing the luc gene.

[1] = test system: MX-1 human breast carcinoma; test: MX-1 human breast carcinoma xenograft in nu/nu mice, tumor volume; type: in vivo
Description: (§1) In another study, 8-12 week old female nu/nu mice were injected with 1 mm^3 tumor fragments of MX-1 human breast carcinoma subcutaneously. Once tumors developed and reached an average size of 80-120 mg, mice received administration of: (1) saline (control) (twice daily, subcutaneous); (2) CRF (100 μg/kg) (twice daily, subcutaneous); (3) CRF (200 μg/kg) (twice daily, subcutaneous); (4) bevacizumab (Avastin®) (5 mg/kg) (twice weekly, intraperitoneal); or (5) CRF (200 μg/kg) (twice daily, subcutaneous) and bevacizumab (Avastin®) (5 mg/kg) (twice weekly, intraperitoneal) (FIG. 13A). Body weight and tumor volume were measured twice a week until the endpoint of the experiment, i.e., the earlier of either 60 days or achieving a tumor weight of 1.5 g.).

[2] = test system: human Non-Small Cell Lung Carcinoma (NSCLC) tumor cell lines; test: human Non-Small Cell Lung Carcinoma xenograft in nu/nu mice, tumor volume; type: in vivo
Description: as §1, with “a second” for “another”, “of” for “of MX-1”, “Non-Small Cell Lung Carcinoma (NSCLC) tumor cell lines” for “breast carcinoma”, “12A).” for “13A).”, “2” for “1.5”

[3] = test system: Colo205 human colon tumor cells; test: Colo205 human colon tumor xenograft in nu/nu mice, tumor volume; type: in vivo
Description: In one study, 8-12 week old female nu/nu mice were injected with 1×10^6 Colo205 human colon tumor cells subcutaneously. Once tumors developed and reached an average size of 100-150 mg, mice received administration of: (1) saline (control) (twice daily, subcutaneous); (2) CRF (100 μg/kg) (twice daily, subcutaneous); (3) CRF (200 μg/kg) (twice daily, subcutaneous); (4) bevacizumab (Avastin®) (5 mg/kg) (twice weekly, intraperitoneal); or (5) CRF (200 μg/kg) (twice daily, subcutaneous) and bevacizumab (Avastin®) (5 mg/kg) (twice weekly, intraperitoneal) (FIG. 11A). Body weight and tumor volume were measured twice a week until the endpoint of the experiment, i.e., the earlier of either 60 days or a tumor volume of 1000 mm^3.

[4] = test system: brain tumor in metastatic patients; test: Clinical study: metastatic patients, brain tumor size by MRI and survival; type: in vivo, human; details: 2 mg/day s.c.
malignant brain tumor = test: Clinical study: patients with malignant brain tumor, tumor size by MRI and survival; type: in vivo, human
Description: Patients with malignant brain tumor were treated with 2 mg/day (1 mg dose, twice daily) of either human CRF subcutaneously. […] Additionally, of the 30 patients who had received treatment for at least 6 months, 10 experienced a decrease in tumor size.

[5] = bevacizumab 5 mg/kg twice weekly, intraperitoneal
[6] = CRF 100 or 200 μg/kg twice daily, subcutaneous
[7] = of the 3 metastatic patients of FIG. 10
[8] = low dose of CRF, 30 μg/kg s.c. twice daily

Compound: O=NN(CCCl)C(=O)NCCCl [BiCNU, carmustine, reference compound]
- brain tumor progression (photon emission) (U87 Fluc brain tumor; BiCNU 20 mg/kg intraperitoneally 5 days/week): continued to grow

Compound: Cn1nnc2c(C(N)=O)ncn2c1=O [TMZ, temozolomide, reference compound]
- mice still alive at the end of the 80-day study period (U87 Fluc brain tumor; TMZ 40 mg/kg intraperitoneally 5 days/week): 40%

Compound: bevacizumab (Avastin®): angiogenesis inhibitor bevacizumab (Avastin®) [reference compound]
- tumor volume compared to control [1, 5]: reduction in tumor volume
- tumor volume compared to control [2, 5]: reduction in tumor volume
- tumor volume compared to control [3, 5]: reduction in tumor volume

Compound: corticorelin acetate [CRF]
- tumor volume compared to control [1, 6]: reduction in tumor volume
- response of metastatic patients to treatment [4]: responded very favorably
- metastatic patients exhibiting survival beyond the projected 3-6 months [4, 7]: 3 patients
- metastatic patients showing a reduction in tumor size at the last timepoint measured [4, 7]: 2 patients
- brain tumor progression (photon emission) (U87 Fluc brain tumor; [8]): did not progress or progressed more slowly
- mean survival time (comparison) (U87 Fluc brain tumor; [8]): between mice, that were administered a high dose of CRF, and mice that had received no treatment or were administered dexamethasone
- mice still alive at the end of the 80-day study period (U87 Fluc brain tumor; [8]): 60%
- survival compared with untreated, dexamethasone or chemotherapeutic agents (U87 Fluc brain tumor; [8]): survived longer
- survival after CRF treatment, some patients (malignant brain tumor; FIGS. 8 and 9): 1-2 years
- patients exhibiting a reduction in tumor size at the last time point measured (malignant brain tumor; of the 10 patients of FIG. 9, 2 mg/day s.c.): 8 patients
- patients exhibiting a reduction in tumor size (malignant brain tumor; of the 20 patients of FIG. 8, 2 mg/day (1 mg twice daily) s.c.): 6 patients
- patients exhibiting a maintenance in tumor size (malignant brain tumor; of the 20 patients of FIG. 8, 2 mg/day s.c.): 5 patients
- patients exhibiting a reduction in tumor size by over 50% (malignant brain tumor; of the 20 patients of FIG. 8, after 9 months of treatment, 2 mg/day s.c.): 3 patients
- patients experiencing a decrease in tumor size (malignant brain tumor; of the 30 patients treated for at least 6 months, 2 mg/day s.c.): 10 patients
- survival of the overwhelming majority of patients (malignant brain tumor; projected survival 3-6 months, FIGS. 8 and 9): live well beyond the projected 3-6 months
- reduction in tumor size (malignant brain tumor; two of the patients, 2 mg/day s.c.): around 90%
- tumor volume compared to control [2, 6]: reduction in tumor volume
- tumor volume compared to control [3, 6]: reduction in tumor volume
